Assays:
KRAS [1] = experiment: KRAS mRNA expression by Endpoint PCR / qRT-PCR in cancer cell lines; type: cell-based, human; settings: for KRAS expression: HCT116 cells, comparison with other CDK inhibitors
Protocol: (§1) In order to confirm the effect of inhibiting KRAS expression by GW8510, a human colon cancer cell line HCT116 with a KRAS G13D mutation, a human prostate cancer cell line PC-3 with a KRAS G13D mutation, a human breast cancer cell line MCF7 as a KRAS wild-type cell line, a human pancreatic cancer cell line MIA PaCa-2 with a KRAS G12C mutation, and a human pancreatic cancer cell line PANC-1 with a KRAS G12D mutation were dispensed in a 6-well plate, and treated with GW8510 at 0, 1, 5 or 10 μM of concentration for 3, 6, 24 or 48 hours. Thereafter, RNA was extracted from the cells using a TRIzol™ Reagent (Thermo Fisher Scientific Inc., USA) and then cDNA was synthesized using M-MLV reverse-transcriptase (ELPIS Biotech, Korea), 2.5 mM dNTP (TransGen Biotech, China), and oligo dT15 (bioneer, Korea). Endpoint PCR was performed using an Endpoint PCR solution mixed with the synthesized cDNA, Taq polymerase master mix, and primers shown in Table 1 below, and a QuantStudio 3 Real-Time PCR Instrument (Thermo Fisher Scientific Inc., USA). Thereafter, the mRNA level of KRAS was confirmed by loading the Endpoint PCR solution on an agarose gel. In addition, the mRNA levels of nuclear transcription factor Y (NYFA) and X-linked inhibitor of apoptosis protein (XIAP) as a protein of inhibiting apoptosis, were also confirmed together with KRAS.
(§2) A colon cancer cell line HCT116 (KRAS G13D mut), pancreatic cancer cell lines PANC-1 (KRAS G12D mut) and MIA PaCa-2 (KRAS G12C mut), and a breast cancer cell line MCF7 (KRAS wt) were dispensed in a 6-well plate, and treated with GW8510 at 0, 1, 5 or 10 μM of concentration for 24 hours, and then Endpoint PCR was performed. In addition, a qRT-PCR solution was prepared by mixing SYBR Green Master Mix, the cDNA of Example 2-1, and the primers in Table 1, and qRT-PCR was performed with QuantStudio 3 Real-Time PCR Instrument (Thermo Fisher Scientific Inc., USA) to quantify the gene expression levels. In addition, the phenotypes of the cancer cell line were observed by treatment of GW8510 by using the colon cancer cell line HCT116 treated with GW8510 at 0 or 10 μM of concentration for 24 hours, and the protein expression levels of pan ras, K-ras, and β-actin were measured by immunoblot. Specifically, the colon cancer cell line HCT116 treated with GW8510 at 0 or 10 μM of concentration for 24 hours was lysed with an RIPA buffer (Curebio, Korea), and then the cell lysate was centrifuged and the supernatant was taken. The cell lysate supernatant was added with a 5×SDS sample buffer and then boiled for 10 minutes, and electrophoresis was performed using a 12% SDS polyacrylamide gel. After electrophoresis, a protein was transferred to a PVDF membrane and then blocked with 5% skim milk (TBS-T) at room temperature for 1 hour. Thereafter, primary antibodies (anti-pan ras, anti-K-ras, and anti-β-actin) diluted in a blocking solution at 1:1000 were added and incubated at 4° C. overnight, and then a membrane was washed three times with 0.05% TBS-T, and a secondary antibody (horseradish peroxidase-conjugated 2nd Ab) diluted at 1:10000 was added and incubated for 1 hour at room temperature. The membrane was washed three times with 0.05% TBS-T, developed with an enhanced chemiluminescence (ECL) solution, and exposed to an X-ray film.
(§3) To determine whether the inhibition of KRAS by GW8510 was regulated through Cdk2 inhibition, HCT116 cells were treated with other CDK inhibitors, such as PKC inhibitor H7, Cdk2 inhibitor CVT-313, and Cdk4/6 inhibitor PD0332991, other than GW8510 (Cdk2 inhibitor) for 24 hours, respectively, and then to analyze the cell cycle, the cells were subjected to PI staining and confirmed by flow cytometry, and the KRAS expression levels were confirmed by Endpoint PCR and qRT-PCR.

HCT116 cells = experiment: Cell cycle analysis by PI staining and flow cytometry; type: cell-based, human; settings: 24 hours, PI staining flow cytometry
Protocol: as §3

HCT116 cells xenograft = experiment: HCT116 xenograft model in nude mice, tumor size; type: in vivo, Balb/c nude mice; settings: GW8510 10 mg/kg i.p. three times a week, cetuximab 1 mg/mouse i.p. once a week
Protocol: Experimental animals used were 36 6-week-old Balb/c nude mice. The experimental diet and drinking water were taken freely, and all experimental diets were stored in a refrigerator during a breeding period. The mice were pre-bred with regular feed to be adapted to a breeding environment for 7 days before the start of the experiment and then divided into a total of 4 groups. […] In all mice, HCT116 cells were injected with 1×10^6 S.C. at 7 weeks of age to prepare a xenograft model. […] The tumor size was measured using Equation of (long axis×short axis×short axis)/2 and measured three times a week at the same time.

NFYA = NFYA mRNA expression by Endpoint PCR in cancer cell lines; type: cell-based, human
Protocol: as §1

KRAS [2] = experiment: KRAS protein expression by immunoblot; type: cell-based, human; settings: HCT116, GW8510 0 or 10 μM, 24 hours
Protocol: as §2, with “After electrophoresis, a protein was transferred to a PVDF membrane and then blocked with 5% skim milk (TBS-T) at room temperature for 1 hour. Thereafter, primary antibodies (anti-pan ras, anti-K-ras, and anti-β-actin) diluted in a blocking solution at 1:1000 were added and incubated at 4° C. overnight, and then a membrane was washed three times with 0.05% TBS-T, and a secondary antibody (horseradish peroxidase-conjugated 2nd Ab) diluted at 1:10000 was added and incubated for 1 hour at room temperature. The membrane was washed three times with 0.05% TBS-T, developed with an enhanced chemiluminescence (ECL) solution, and exposed to an X-ray film.” left out

XIAP = XIAP mRNA expression by Endpoint PCR in cancer cell lines; type: cell-based, human
Protocol: as §1

[3] = 24 hours, Endpoint PCR and qRT-PCR
[4] = all of the cell lines (HCT116, PC-3, MCF7, MIA PaCa-2, PANC-1)

## CC1CNCCN1S(=O)(=O)c1cccc2cnccc12 (stereo not shown) [H7, reference compound]
KRAS [1]; [3]
  KRAS expression: no change in KRAS expression
HCT116 cells
  cell cycle: arrested in the GO/G1 phase

## CC(=O)c1c(C)c2cnc(Nc3ccc(N4CCNCC4)cn3)nc2n(C2CCCC2)c1=O [PD0332991, reference compound]
KRAS [1]; [3]
  KRAS expression: no change in KRAS expression
HCT116 cells
  cell cycle: arrested in the GO/G1 phase

## O=C1Nc2ccc3ncsc3c2/C1=C/Nc1ccc(S(=O)(=O)Nc2ccccn2)cc1 [GW8510]
HCT116 cells xenograft
  tumor size: tended to decrease compared to the control group
NFYA; HCT116 cells (KRAS G13D)
  mRNA expression level of NFYA: also decreased
NFYA; [4]
  mRNA level of NFYA: also decreased
KRAS [1]; HCT116, PANC-1, MIA PaCa-2 and MCF7, GW8510 0, 1, 5 or 10 μM, 24 hours, Endpoint PCR and qRT-PCR
  KRAS transcription level: significantly reduced
KRAS [1]; [3]
  KRAS expression: inhibited the KRAS expression
KRAS [1]; HCT116 colon cancer cells (KRAS G13D), GW8510 0, 1, 5 or 10 μM, 3, 6, 24 or 48 hours, effect from 6 hours, Endpoint PCR
  mRNA expression level of KRAS: decreased in a concentration-dependent manner
KRAS [1]; MCF7 breast cancer cells (KRAS wild-type), Endpoint PCR
  KRAS mRNA level: also reduced
KRAS [1]; MIA PaCa-2 pancreatic cancer cells (KRAS G12C), Endpoint PCR
  KRAS mRNA level: decreased
KRAS [1]; PANC-1 pancreatic cancer cells (KRAS G12D), Endpoint PCR
  KRAS mRNA level: decreased
KRAS [1]; PC-3 prostate cancer cells (KRAS G13D), Endpoint PCR
  KRAS mRNA level: decreased
KRAS [2]
  KRAS protein level: also decreased
XIAP; HCT116 cells (KRAS G13D)
  mRNA expression level of XIAP: also decreased
XIAP; [4]
  mRNA level of XIAP: also decreased

## COc1ccc(CNc2nc(N(CCO)CCO)nc3c2ncn3C(C)C)cc1 [CVT-313, reference compound]
KRAS [1]; [3]
  KRAS expression: no change in KRAS expression
HCT116 cells
  cell cycle: arrested in the GO/G1 phase
